# Source: patent US20090312349A1, “ANTI-INFLAMMATORY MEDICAMENTS” (priority 2004, published 2009)
# Legend:
# [1] = molecular target: p38 MAP kinase (Homo sapiens, UniProt Q16539); assay: P38 MAP kinase binding assay (fluorescence competition with SKF 86002); settings: time-dependent if the IC50 values decrease with the reaction time (more than two-fold in four hours)
# Method: The reaction was initiated by addition of the enzyme. […] By comparison of rfu (relative fluorescence unit) values with that of a control (in the absence of an inhibitor), the percentage of inhibition at each concentration of the inhibitor was calculated. IC50 value for the inhibitor was calculated from the % inhibition values obtained at a range of concentrations of the inhibitor using Prism. When time-dependent inhibition was assessed, the plate was read at multiple reaction times such as 0.5, 1, 2, 3, 4 and 6 hours. The IC50 values were calculated at the each time point. An inhibition was assigned as time-dependent if the IC50 values decrease with the reaction time (more than two-fold in four hours).
# [2] = test system: TNF-alpha release from human peripheral blood mononuclear leukocytes; assay: Human peripheral blood mononuclear leukocyte cell assay (LPS-induced TNF-alpha release, ELISA); assay type: cell-based; settings: 25 ng/mL LPS, 16 hours, read-out: IC50, uM (inhibition of TNF-alpha release)
# Method: The quantity of LPS-induced tumor necrosis factor-alpha (TNF-alpha) cytokine release is measured by a commercially available Enzyme-Linked Immunosorbent Assay (ELISA) kit. Test compounds are evaluated for their ability to inhibit TNF-alpha release.
# [3] = molecular target: T1, phospho p-38 alpha kinase (Homo sapiens, UniProt Q16539); assay: P-38 alpha kinase assay (spectrophotometric, pyruvate kinase/lactate dehydrogenase coupled); assay type: biochemical; settings: Table 5; for IC50: assay not named, read-out: uM
# T1 construct: purchased Panvera
# [4] = molecular target: phosphorylated p-38-alpha kinase (Homo sapiens, UniProt Q16539); assay: P-38 alpha kinase assay P1; assay type: biochemical; settings: Method P1; 2 h pre-incubation before ATP
# [5] = molecular target: B-Raf(V599E) kinase (Homo sapiens, UniProt P15056, V600E); assay: biochemical; settings: for IC50: Method B2, construct 2
# Method: The test compounds were incubated with the reaction mixture at 30° C. for 2 h. […] The reaction rate was calculated using the 1.5 h to 2.5 h time frame. […] IC50 values were calculated from a series of percent inhibition values determined at a range of inhibitor concentrations using software routines as implemented in the GraphPad Prism software package.
# Same as assay B1 except that (1) construct 2 was employed at a nominal concentration of 2 nM (2) the reaction was pre-incubated at 30° C. for 1 h prior to initiation with ATP (3) a reading time frame of 0.5 h to 1.5 h.
# [6] = molecular target: T2, KDR kinase (Homo sapiens, UniProt P35968, DEL940-989/E990V); assay: KDR kinase assay K1; assay type: biochemical; settings: read-out: Results, % @ concentration μM, Method K1; @ 10 μM
# Method: (§1) IC50 values were calculated from a series of percent inhibition values determined at a range of inhibitor concentrations using software routines as implemented in the GraphPad Prism software package.
# [7] = molecular target: T3, Abl kinase (Homo sapiens, UniProt P00519); assay: Abl kinase assay A1; assay type: biochemical; settings: read-out: Results, % @ concentration μM, Method A1; @ 1 μM
# T3 sequence (P00519 229-512): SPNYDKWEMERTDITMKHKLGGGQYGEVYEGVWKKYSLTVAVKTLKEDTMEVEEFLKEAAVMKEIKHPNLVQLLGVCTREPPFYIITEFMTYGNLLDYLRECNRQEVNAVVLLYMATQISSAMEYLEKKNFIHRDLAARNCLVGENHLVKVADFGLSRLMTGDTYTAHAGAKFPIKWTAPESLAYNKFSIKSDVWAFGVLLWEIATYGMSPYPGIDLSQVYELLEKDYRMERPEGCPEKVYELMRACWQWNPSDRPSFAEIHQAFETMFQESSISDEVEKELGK
# Method: as §1
# [8] = molecular target: T2, KDR kinase; assay: KDR kinase assay K2; settings: read-out: Results, % @ concentration μM
# [9] = molecular target: T3, Abl kinase; assay: Abl kinase assay A2; assay type: biochemical; settings: Method A2; 2 h pre-incubation, 0.5 mM ATP
# Method: as §1
# [10] = read-out: Results, % @ concentration μM
# T1 sequence (Q16539 whole entry): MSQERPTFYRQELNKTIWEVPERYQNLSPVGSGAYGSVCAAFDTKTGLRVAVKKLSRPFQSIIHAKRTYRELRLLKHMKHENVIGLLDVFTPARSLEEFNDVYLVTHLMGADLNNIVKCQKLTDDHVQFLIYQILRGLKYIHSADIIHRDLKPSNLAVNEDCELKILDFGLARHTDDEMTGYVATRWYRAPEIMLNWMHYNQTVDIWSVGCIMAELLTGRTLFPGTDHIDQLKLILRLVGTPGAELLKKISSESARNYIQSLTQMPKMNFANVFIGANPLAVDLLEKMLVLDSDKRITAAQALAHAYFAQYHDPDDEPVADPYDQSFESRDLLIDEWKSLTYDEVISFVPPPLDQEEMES
# Sequence of p38 MAP kinase (Q16539 whole entry): as above
# Sequence of phosphorylated p-38-alpha kinase (Q16539 1-360 isoform Q16539-2): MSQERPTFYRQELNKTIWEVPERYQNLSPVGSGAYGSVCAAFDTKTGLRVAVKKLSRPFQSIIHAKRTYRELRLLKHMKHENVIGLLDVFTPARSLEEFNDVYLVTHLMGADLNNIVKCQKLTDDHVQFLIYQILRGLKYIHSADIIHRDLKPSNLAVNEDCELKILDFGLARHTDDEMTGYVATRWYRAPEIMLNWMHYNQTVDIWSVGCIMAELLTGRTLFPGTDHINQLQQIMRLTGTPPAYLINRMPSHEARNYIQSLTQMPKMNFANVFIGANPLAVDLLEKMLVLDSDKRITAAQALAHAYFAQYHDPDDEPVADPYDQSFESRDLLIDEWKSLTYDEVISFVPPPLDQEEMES
# Sequence of B-Raf(V599E) kinase (P15056 433-726 V600E): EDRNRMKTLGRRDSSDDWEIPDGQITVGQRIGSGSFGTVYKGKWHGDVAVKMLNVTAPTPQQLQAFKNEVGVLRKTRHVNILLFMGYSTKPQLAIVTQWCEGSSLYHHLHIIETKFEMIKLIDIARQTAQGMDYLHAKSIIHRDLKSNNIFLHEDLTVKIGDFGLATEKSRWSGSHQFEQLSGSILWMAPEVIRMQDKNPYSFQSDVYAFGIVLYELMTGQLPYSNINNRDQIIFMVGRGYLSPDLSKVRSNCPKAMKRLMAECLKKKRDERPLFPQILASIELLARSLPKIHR
# T2 sequence (P35968 with tags, fused parts or gaps DEL940-989/E990V): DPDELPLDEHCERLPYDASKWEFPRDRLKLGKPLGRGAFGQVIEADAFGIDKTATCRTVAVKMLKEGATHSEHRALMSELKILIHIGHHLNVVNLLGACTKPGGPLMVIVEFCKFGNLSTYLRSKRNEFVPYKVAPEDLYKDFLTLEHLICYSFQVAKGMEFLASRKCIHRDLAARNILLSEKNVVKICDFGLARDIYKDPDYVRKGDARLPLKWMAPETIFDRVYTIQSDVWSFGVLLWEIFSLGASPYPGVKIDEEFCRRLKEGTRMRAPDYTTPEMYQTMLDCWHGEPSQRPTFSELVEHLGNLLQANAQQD
smiles,measurement,setting,value
CC1(C(=O)O)CC2(C)CC(C)(C1)C(=O)N(Cc1cccc(-n3nc(C(C)(C)C)cc3NC(=O)Nc3cccc4ccccc34)c1)C2=O (centres unmarked) [Example 11],Time-dependent,[1],No
CC1(C(=O)O)CC2(C)CC(C)(C1)C(=O)N(Cc1cccc(-n3nc(C(C)(C)C)cc3NC(=O)Nc3ccc(Cl)cc3)c1)C2=O (centres unmarked) [Example 12],Time-dependent,[1],No
"CC(C)(C)c1cc(NC(=O)Nc2cccc3ccccc23)n(-c2cccc(CC(=O)N3CCOCC3)c2)n1 [Example 21, 1-{3-t-butyl-1-[3-(2-morpholino-2-oxoethyl)phenyl]-1H-pyrazol-5-yl}-3-(naphthalene-1-yl)urea]",Time-dependent,[1],Yes
"CC(C)(C)c1cc(NC(=O)Nc2cccc3ccccc23)n(-c2ccc(CN)cc2)n1 [Example 45, 1-{3-t-butyl-1-[4-(aminomethyl)phenyl]-1H-pyrazol-5-yl}-3-(naphthalen-1-yl)urea]",Time-dependent,[1],No
"CCOC(=O)Cc1cccc(-n2nc(C(C)(C)C)cc2NC(=O)Nc2ccc3c(c2)OCO3)c1 [Example 296, ethyl 2-(3-{5-[3-(benzo[d][1,3]dioxol-5-yl)ureido]-3-t-butyl-1H-pyrazol-1-yl}phenyl)-acetate]",IC50,[2],3.49 µM
"CN(C)CCc1cccc(-n2nc(C(C)(C)C)cc2NC(=O)Nc2ccc3c(c2)OCO3)c1 [Example 300, 1-(benzo[d][1,3]dioxol-5-yl)-3-{3-t-butyl 1-(3-[2-(dimethylamino)ethyl]phenyl}-1H-pyrazol-5-yl)urea]",IC50,[2],4.78 µM
"O=C(O)Cc1cccc(-n2nc(-c3ccsc3)cc2NC(=O)Nc2cccc(Cl)c2Cl)c1 [Example 436, 2-(3-(5-(3-(2,3-dichlorophenyl)ureido)-3-(thiophen-3-yl)-1H-pyrazol-1-yl)phenyl)acetic acid]","% @ concentration, uM",[3]; @ 0.1 uM,16%
same,"% @ concentration, uM",[3]; @ 1 uM,41%
same,IC50,[4],0.007 µM
same,IC50,[5],3.7 µM
"O=C(Cc1cccc(-n2nc(-c3ccccc3F)cc2NC(=O)Nc2cccc(Cl)c2Cl)c1)NCC(O)CO (centres unmarked) [Example 459, 1-(2,3-dichlorophenyl)-3-(1-(3-(2-(2,3-dihydroxypropylamino)-2-oxoethyl)phenyl)-3-(2-fluorophenyl)-1H-pyrazol-5-yl)urea]",IC50,[3],0.02 µM
same,IC50,[4],0.005 µM
same,inhibition at 10 µM,[6],33%
same,inhibition at 10 µM,[5]; [10],5%
"O=C(Cc1ccc(-n2nc(-c3ccccc3F)cc2NC(=O)Nc2cccc(Cl)c2Cl)cc1)NCC(O)CO (centres unmarked) [Example 471, 1-(2,3-dichlorophenyl)-3-(1-(4-(2-(2,3-dihydroxypropylamino)-2-oxoethyl)phenyl)-3-(2-fluorophenyl)-1H-pyrazol-5-yl)urea]",IC50,[4],0.016 µM
same,inhibition at 10 µM,[5]; [10],39%
same,inhibition at 1 µM,[7],14%
"O=C(Cc1ccc(-n2nc(-c3ccccc3F)cc2NC(=O)Nc2cccc(Cl)c2Cl)cc1)NC(CO)CO [Example 473, 1-(2,3-dichlorophenyl)-3-(1-(4-(2-(1,3-dihydroxypropan-2-ylamino)-2-oxoethyl)phenyl)-3-(2-fluorophenyl)-1H-pyrazol-5-yl)urea]",IC50,[3],0.004 µM
same,IC50,[4],0.03 µM
same,inhibition at 10 µM,[5]; [10],4%
"O=C(Cc1cccc(-n2nc(C3CCCC3)cc2NC(=O)Nc2cccc(Cl)c2Cl)c1)NCCO [Example 488, 1-(3-cyclopentyl-1-(3-(2-(2-hydroxyethylamino)-2-oxoethyl)phenyl)-1H-pyrazol-5-yl)-3-(2,3-dichlorophenyl)urea]",IC50,[3],0.54 µM
same,IC50,[4],0.007 µM
same,inhibition at 1 µM,[5]; [10],21%
same,inhibition at 1 µM,[8],41%
"Cc1ccc(NC(=O)Nc2cc(C(C)(C)C)nn2-c2cccc(CC(=O)NCC(O)CO)c2)cc1Nc1nccc(-c2cccnc2)n1 (centres unmarked) [Example 517, 1-(3-tert-butyl-1-(3-(2-(2,3-dihydroxypropylamino)-2-oxoethyl)phenyl)-1H-pyrazol-5-yl)-3-(4-methyl-3-(4-(pyridin-3-yl)pyrimidin-2-ylamino)phenyl)urea]",IC50,[5],0.075 µM
same,IC50,[9],0.0022 µM
